US20200404919A1, “USE OF HETEROARYL-TRIAZOLE AND HETEROARYL-TETRAZOLE COMPOUNDS AS PESTICIDES IN PLANT PROTECTION” (Bayer Aktiengesellschaft, priority 2018, published 2020)

Key:
Format in all cases: in vivo
Spodoptera frugiperda = Spodoptera frugiperda - spray test; details: in Zea mays, 168 h, read-out: mortality in %
Summary of the method: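 Seven-day percent mortality of larvae feeding on Zea mays leaf sections sprayed with test compound. Dilutions were made in water holding 1000 ppm emulsifier.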

Myzus persicae = Myzus persicae - spray test; details: foliar, 120 h, Chinese cabbage leaf disks, all instars, after 5 days
Protocol: Myzus persicae—Spray Test
(§1) To produce a suitable preparation of active compound, 1 part by weight of active compound is mixed with the stated amount of solvents and is diluted with water, containing an emulsifier concentration of 1000 ppm, to the desired concentration. Further test concentrations are prepared by dilution with emulsifier containing water.
Chinese cabbage (Brassica pekinensis) leaf disks infected with all instars of the green peach aphid (Myzus persicae), are sprayed with a preparation of the active ingredient of the desired concentration.
After 5 days mortality in % is determined. 100% means all aphids have been killed and 0% means none of the aphids have been killed.

Tetranychus urticae = Tetranychus urticae - spray test OP-resistant; details: foliar, 144 h, French bean leaf disks, all instars, after 6 days
Protocol: Tetranychus urticae—Spray Test OP-Resistant
as §1
French bean (Phaseolus vulgaris) leaf disks infected with all instars of the two spotted spidermite (Tetranychus urticae), are sprayed with a preparation of the active ingredient of the desired concentration.
After 6 days mortality in % is determined. 100% means all spider mites have been killed and 0% means none of the spider mites have been killed.

Nezara viridula = Nezara viridula - spray test 1; details: in Hordeum vulgare, 96 h, read-out: mortality in %
Summary of the method: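 Percent kill of Nezara viridula larvae was read 4 days after spraying infested barley (Hordeum vulgare). The spray was the compound concentrate diluted in 1000 ppm emulsifier-containing water.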

Nilaparvata lugens = Nilaparvata lugens - spray test 1; details: in Oryza sativa, 96 h, read-out: mortality in %, 500 g/ha, rice plants, after 4 days
Summary of the method: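 Mortality (%) was scored 4 days after infesting treated plants with brown planthopper, where 100% means all insects were killed. Compound was applied by spraying rice (Oryza sativa) at the desired concentration, diluted in water carrying 1000 ppm emulsifier.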

Diabrotica balteata = Diabrotica balteata - spray test; details: 168 h, 160 μg/well, germinated wheat seeds, larvae, after 7 days, read-out: efficacy in %
Summary of the method: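 Efficacy (%) read 7 days after infesting treated seedlings with 10-20 banded cucumber beetle larvae, 100% meaning growth as in uninfected untreated control and 0% no growth. Test solutions in water containing 1000 ppm emulsifier were sprayed onto wheat seeds germinated for 1 day on agar.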

CC(c1ncnn1-c1ncccn1)N(CC#N)C(=O)c1cc(Cl)cc(C(F)(F)F)c1 (stereo not drawn) [Compound I-96]
mortality at 500 g/ha (Spodoptera frugiperda): 100% | mortality at 500 g/ha (Myzus persicae): 90% | mortality at 500 g/ha (Tetranychus urticae): 90% | mortality at 500 g/ha (Nezara viridula): 100% | mortality at 500 g/ha (Nilaparvata lugens): 100%

CC(c1ncnn1-c1ncccn1)N(CC(F)F)C(=O)c1cccc(C(F)(F)F)c1 (stereo not drawn) [Compound I-123]
mortality at 500 g/ha (Spodoptera frugiperda): 100% | mortality at 500 g/ha (Myzus persicae): 90% | mortality at 500 g/ha (Tetranychus urticae): 100% | mortality at 500 g/ha (Nezara viridula): 100% | mortality at 500 g/ha (Nilaparvata lugens): 100%

CC(NC(=O)c1cc(Cl)cc(Cl)c1)c1ncnn1-c1ncccn1 (stereo not drawn) [Compound I-124]
mortality at 500 g/ha (Spodoptera frugiperda): 100% | mortality at 500 g/ha (Myzus persicae): 90% | mortality at 500 g/ha (Nezara viridula): 100% | mortality at 500 g/ha (Nilaparvata lugens): 90%

CC(NC(=O)c1cc(Cl)cc(Br)c1)c1ncnn1-c1ncccn1 (stereo not drawn) [Compound I-125, 3-bromo-5-chloro-N-[1-(2-pyrimidin-2-yl-1,2,4-triazol-3-yl)ethyl]benzamide]
mortality at 500 g/ha (Spodoptera frugiperda): 100% | mortality at 500 g/ha (Myzus persicae): 90% | pest or weed control at 160 µg/disc, 160 µg/well (Diabrotica balteata): 100% | mortality at 500 g/ha (Nezara viridula): 100%

CC(NC(=O)c1cc(Cl)cc(I)c1)c1ncnn1-c1ncccn1 (stereo not drawn) [Compound I-126, 3-chloro-5-iodo-N-[1-(2-pyrimidin-2-yl-1,2,4-triazol-3-yl)ethyl]benzamide]
mortality at 500 g/ha (Spodoptera frugiperda): 100% | mortality at 500 g/ha (Myzus persicae): 90% | pest or weed control at 160 µg/disc, 160 µg/well (Diabrotica balteata): 100% | mortality at 500 g/ha (Nezara viridula): 100%

C[C@@H](c1ncnn1-c1ncccn1)N(CC(F)F)C(=O)c1cc(Cl)cc(C(F)(F)F)c1 [Compound I-127, 3-chloro-N-(2,2-difluoroethyl)-N-[(1S)-1-(2-pyrimidin-2-yl-1,2,4-triazol-3-yl)ethyl]-5-(trifluoromethyl)benzamide]
mortality at 500 g/ha (Spodoptera frugiperda): 100% | mortality at 500 g/ha (Myzus persicae): 100% | pest or weed control at 160 µg/disc, 160 µg/well (Diabrotica balteata): 100% | mortality at 500 g/ha (Nezara viridula): 100%

C[C@H](NC(=O)c1cncc(Br)c1)c1ncnn1-c1ncccn1 [Compound I-134]
mortality at 500 g/ha (Myzus persicae): 90% | pest or weed control at 160 µg/disc, 160 µg/well (Diabrotica balteata): 100% | mortality at 500 g/ha (Nezara viridula): 100% | mortality at 500 g/ha (Nilaparvata lugens): 100%
